The values below come from paper PMC7352922, “Norditerpenoids with Selective Anti-Cholinesterase Activity from the Roots of Perovskia atriplicifolia Benth” (International Journal of Molecular Sciences, 2020).

Several values for one entry are separate records, joined by “and”; a condition that tells them apart may be missing. Equal entries are not always repeated. Structures can show the parent of a compound that is named as a salt. Where two headings read alike, the source gives them in different places.

In data set [1] the target is T1, Electric eel acetylcholinesterase (Electrophorus electricus, UniProt O42275).
T1 construct: purchased Sigma, St. Louis, MO, USA Type-VI-S
T1 sequence (O42275 24-633): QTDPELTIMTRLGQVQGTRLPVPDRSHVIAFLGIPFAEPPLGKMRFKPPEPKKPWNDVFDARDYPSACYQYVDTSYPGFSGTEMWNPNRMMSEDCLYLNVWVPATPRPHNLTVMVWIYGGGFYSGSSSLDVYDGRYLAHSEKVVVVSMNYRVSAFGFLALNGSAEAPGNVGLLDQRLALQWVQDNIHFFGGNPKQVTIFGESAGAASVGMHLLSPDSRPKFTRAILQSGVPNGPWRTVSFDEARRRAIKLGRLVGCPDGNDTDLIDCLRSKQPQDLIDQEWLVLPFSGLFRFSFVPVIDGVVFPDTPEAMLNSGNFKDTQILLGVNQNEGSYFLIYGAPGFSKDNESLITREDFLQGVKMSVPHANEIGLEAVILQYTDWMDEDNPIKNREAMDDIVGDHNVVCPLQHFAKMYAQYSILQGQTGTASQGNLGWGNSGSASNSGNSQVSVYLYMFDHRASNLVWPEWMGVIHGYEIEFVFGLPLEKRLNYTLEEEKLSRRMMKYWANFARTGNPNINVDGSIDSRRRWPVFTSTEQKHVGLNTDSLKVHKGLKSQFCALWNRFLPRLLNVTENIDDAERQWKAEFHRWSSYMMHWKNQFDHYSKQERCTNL
Nature of the data set: biochemical. The following applies: for inhibition at 10 µg/mL: read-out: % Inhibition ± S.D. at 10.0 µg·mL^−1 AChE, at 10.0 µg·mL^−1; for IC50: read-out: AChE IC50. Here is the method:
(§1) A modified spectrophotometric method of Ellman et al. was used for the determination of inhibitory activity against AChE and BChE. Electric eel acetylcholinesterase (Type-VI-S, EC 3.1.1.7, Sigma, St. Louis, MO, USA) and horse serum butyrylcholinesterase (EC 3.1.1.8, Sigma, St. Louis, MO, USA) were used as the test enzymes and acetylthiocholine iodide and butyrylthiocholine chloride (Sigma, St. Louis, MO, USA) were employed as the respective substrates. The ChE activity was evaluated with the detection reagent 5,5′-dithio-bis(2-nitrobenzoic) acid (DTNB, Sigma, St. Louis, MO, USA). All the other reagents and conditions were the same as described in our previous publication. In brief, the following reaction mixture was added by a multichannel automatic pipette (Gilson Pipetman, Villiers Le Bel, France) in a 96-well microplate and incubated for 15 min at 25 °C: 140 µL of […] sodium phosphate buffer (pH 8.0), 20 µL of […] DTNB, 20 µL of sample solutions (0.1–10 µg/mL) and 20 µL of acetylcholinesterase/butyrylcholinesterase solution (0.2 µM). The reaction was then initiated with the addition of 10 µL of acetylthiocholine iodide or butyrylthiocholine chloride (2 mM). […] Galanthamine (Sigma, St. Louis, MO, USA)—an alkaloid isolated from snowdrop—was employed as the reference inhibitory drug.
(§2) The measurements and calculations were performed using SoftMax PRO 4.3.2.LS software (Molecular Devices, San Jose, CA, USA). […] The extent of the enzymatic reaction was calculated based on the following equation: E = (C − T)/C × 100, where E is the activity of the enzyme. E expresses the effect of the test sample or the positive control on acetylcholinesterase and butyrylcholinesterase enzyme activity expressed as the percentage of the […] in the presence of the test sample or positive control. C is the absorbance of the control solvent (blank) in the presence of an enzyme, and T is the absorbance of the tested sample (plant extract or positive control in the solvent) in the presence of an enzyme.
(§3) Statistical differences between the reference and the sample groups were evaluated by one-way ANOVA (Statistica 13PL, StatSoft, Cracow, Poland) with Dunnett’s multiple comparison post-hoc test for which p < 0.05 was considered to be significant (* p < 0.05; ** p < 0.01; *** p < 0.001, **** p < 0.0001).

For data set [2], the target named is T2, horse serum butyrylcholinesterase (Equus caballus, UniProt P81908).
T2 construct: horse serum butyrylcholinesterase (EC 3.1.1.8, Sigma, St. Louis, MO, USA); purchased Sigma, St. Louis, MO, USA; host or cells: horse serum
T2 sequence (P81908 whole entry): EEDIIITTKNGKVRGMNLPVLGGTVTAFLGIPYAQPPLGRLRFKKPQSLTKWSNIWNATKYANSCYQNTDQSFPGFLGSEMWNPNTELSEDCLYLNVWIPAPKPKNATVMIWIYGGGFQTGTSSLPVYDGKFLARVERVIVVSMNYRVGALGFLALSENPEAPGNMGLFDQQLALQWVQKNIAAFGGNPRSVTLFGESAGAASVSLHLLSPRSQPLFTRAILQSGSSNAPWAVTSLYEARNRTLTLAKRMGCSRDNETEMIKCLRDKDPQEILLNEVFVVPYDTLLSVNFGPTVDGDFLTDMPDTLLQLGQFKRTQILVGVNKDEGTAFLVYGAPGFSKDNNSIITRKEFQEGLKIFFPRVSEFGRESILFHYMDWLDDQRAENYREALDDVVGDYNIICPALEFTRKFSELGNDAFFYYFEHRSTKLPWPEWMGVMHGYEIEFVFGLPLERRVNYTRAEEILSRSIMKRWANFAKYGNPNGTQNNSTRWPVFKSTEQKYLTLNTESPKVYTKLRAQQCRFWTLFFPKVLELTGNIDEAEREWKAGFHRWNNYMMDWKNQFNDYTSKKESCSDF
Nature of the data set: biochemical. The following applies: for inhibition at 10 µg/mL: read-out: % Inhibition ± S.D. at 10.0 µg·mL^−1 BChE; for IC50: read-out: BChE Inhibition IC50 (converted). Here is the method: as §1, §2, §3

Data set [3] deals with T2, horse serum butyrylcholinesterase. Nature of the data set: biochemical. The following applies: BChE; for assumed competitive inhibition, substrate concentration = 1 mM; read-out: Ki app.
Data set [4] relates to several cancer cell lines. The following applies: isolated from rhizomes of Salvia tebesana Bunge; cited from earlier work.
A further data set has as its system cholinesterase. The following applies: cited from earlier work.

Broadly, the inhibition is the change of the read-out against control, counted positive when it falls. The term IC50 denotes the concentration that inhibits the measured activity by half. In the case of `Cc1cc2c(cc(O)c1=O)C1(CO)CCCC(C)(C)C1CC2` (centres unmarked) [Compound 4, isograndifoliol], in data set [1], the inhibition at 10 µg/mL was not above 50%; the IC50 was > 340 µM and 343 µM. Besides, in data set [2], the “BChE Inhibition IC50” value is recorded as “below one micromole”; the IC50 was 0.9 µM and 0.893 µM and 0.89 µM. In addition, the inhibition at 10 µg/mL in data set [2] (at 10.0 µg·mL^−1) came to 98.6%. Moreover, the Ki in data set [3] turned out to be 0.47 µM.

For the compound `COc1ccc2c3c1O[C@H]1C[C@@H](O)C=C[C@@]31CCN(C)C2` [Galanthamine hydrobromide, reference compound], the inhibition at 10 µg/mL in data set [2] came to 86.8 ± 2.9%.

Consider Aegyptinone A, for which, in data set [4], the “cytotoxic activity against several cancer cell lines” value is given as “moderate”.

Regarding `CC(=O)O[C@@H]1CCC(C)(C)c2ccc3c(c21)C(=O)C(=O)C1=C3OC[C@@H]1C` [Compound 1, (1R,15R)-1-acetoxycryptotanshinone], in data set [2] (at 10.0 µg·mL^−1), the “% Inhibition ± S.D. at 10.0 µg·mL^−1 BChE” value is reported as 95.9 ± 0.0% and the inhibition at 10 µg/mL worked out at 95.9%. Also, in data set [2], the IC50 is 2.4 µM and 2.37 µM. In addition, the Ki in data set [3] was 1.34 µM.

Regarding `C[C@H]1COC2=C1C(=O)C(=O)c1cc3c(cc12)C(C)(C)CCC3=O` [Compound 3, (R)-3,10,10-trimethyl-2,3,9,10-tetrahydroanthra[1,2-b]furan-4,5,7(8H)-trione], in data set [1], the inhibition at 10 µg/mL is not above 50% and the IC50 is 330 µM. In data set [2] (at 10.0 µg·mL^−1), the “% Inhibition ± S.D. at 10.0 µg·mL^−1 BChE” value turned out to be 87.3 ± 1.0% and the inhibition at 10 µg/mL was 87.3%. The IC50 in data set [2] was 50.8 µM. In data set [3], the Ki was 30 µM.

`C[C@H]1COC2=C1C(=O)C(=O)c1c2ccc2c1CCCC2(C)C` [cryptotanshinone]: the cholinesterase inhibitory activity result in the data set with cholinesterase was “only moderate”.

Consider `CC(=O)O[C@@H]1CCC(C)(C)c2ccc3c(c21)C(=O)C(=O)c1c(C)coc1-3` [Compound 2, (1R)-1-acetoxytanshinone IIA], for which, in data set [2] (at 10.0 µg·mL^−1), the “% Inhibition ± S.D. at 10.0 µg·mL^−1 BChE” value came out at 85.3 ± 4.3% and the inhibition at 10 µg/mL is 85.3%. Further, in data set [2], the IC50 is 7.9 µM and 7.86 µM. Moreover, the Ki in data set [3] worked out at 4.59 µM.
